Test results: US11298347B2, “Methods of diagnosing and treating Tourette syndrome” (THE CHILDREN'S HOSPITAL OF PHILADELPHIA, priority 2015, dated 2022)

What was measured:
[1] = system: group I and group II/III mGluRs; settings: in vitro studies (Hirouchi 2000); cited from earlier work
[2] = prior human studies; cited from earlier work
[3] = system: adenylate cyclase activity; settings: Oka 1997; cited from earlier work
[4] = open-label Phase Ib clinical trial of NFC-1 in adolescent ADHD subjects with a genetic alteration in an mGluR network gene; type: in vivo, human
Protocol: An open-label Phase Ib clinical trial was conducted to investigate the safety, pharmacokinetics and efficacy of NFC-1 (fasoracetam monohydrate) in adolescent subjects between the ages of 12 and 17 previously diagnosed with ADHD who also had at least one genetic alteration in an mGluR network gene.
The study included 30 ADHD subjects who were between ages 12 and 17, of any ancestry or race, of weight within the 5th to 95th percentile for their age, and otherwise judged to be in good medical health. […] Seventeen of the 30 subjects have a CNV in a tier 1 mGluR network gene, while 7 subjects have a CNV in a tier 2 gene and 6 in a tier 3 gene.
Exclusion criteria comprised subjects suffering from a clinically significant illness, either mental or physical, that, in the investigator's opinion, might confound the results of the study or that might prevent them from completing the study, subjects that are pregnant or nursing, subjects that test positive for illicit drugs of that have a history of drug abuse, subjects that consume alcoholic beverages, or subjects for which the investigator is otherwise concerned regarding their compliance or suitability.
NFC-1 capsules of either 50 mg or 200 mg comprising fasoracetam monohydrate as active ingredient and placebo capsules comprising microcellulose were used for the study. The design of the trial was a phone screening (1 day), enrollment phase (1 to 2 days), a wash-out phase for subjects currently on ADHD medications (1-14 days), pharmacokinetic (PK) assessment (2 days), followed by a dose-escalation phase (35 days) and a follow-up phone visit approximately four weeks after the last dose, for a maximum of 127 days. All ADHD medications were discontinued during the wash-out phase prior to the study. The wash-out period for stimulants was 2-3 days and that for atomoxetine or noradrenergic agonists was 10-12 days. No new ADHD medications were started during the study.
A dose-escalation phase of the trial ran over a 5-week period, after the initial wash-out period and the PK and initial safety assessments. During week 1, all subjects were administered placebo capsules twice daily. After one week of placebo treatment, patients were started on 50 mg bid NFC-1 for 1 week. If safety and responsiveness data from prior dose level of fasoracetam indicated it was appropriate, subjects were then escalated to the next higher dose (100, 200, or 400 mg).
Of the 30 trial subjects, 3 received a maximum dose of 100 mg, 9 received a maximum dose of 200 mg, and the remaining 18 received a maximum dose of 400 mg.

[5] = cited from earlier work

SMILES | stimulation of mGluRs [1] | half-life [2] | adenylate cyclase activity by stimulating group II and III mGluRs [3] | adenylate cyclase activity through activation of group I mGluRs [3] | OCD symptoms during therapy ([4]; all eight subjects with symptoms of OCD) | dermatillomania symptoms ([4]; one subject with OCD and history of ear scratching) | bleeding ulcer from ear scratching ([4]; one subject with OCD and history of ear scratching (dermatillomania)) | tics during therapy ([4]; two individuals with history of recurrent tics, 50-400 mg bid dose escalation) | safety and tolerability ([5]; Phase I-III clinical trials) | effects on psychiatric symptoms ([5]; Phase III data, cerebral infarct patients and adult dementia patients with cerebrovascular diseases) | efficacy in dementia ([5]; Phase III trials, dementia-related cognitive impairment)
O=C1CC[C@H](C(=O)N2CCCCC2)N1 [Fasoracetam, fasoracetam] | can stimulate both group I and group II/III mGluRs | 5 to 6.5 h | may also inhibit adenylate cyclase activity | may stimulate adenylate cyclase activity |  |  |  |  |  |  | 
O=C1CC[C@H](C(=O)N2CCCCC2)N1 [NFC-1, fasoracetam monohydrate] |  |  |  |  | improved | reduced | healed | did not demonstrate tics | generally safe and well tolerated | beneficial effects | did not show sufficient efficacy
